Laboratory results taken from paper PMC6445164, “Primary mono- and bis-sulfonamides obtained via regiospecific sulfochlorination of N-arylpyrazoles: inhibition profile against a panel of human carbonic anhydrases” (Journal of Enzyme Inhibition and Medicinal Chemistry, 2017).
Like-named read-outs stand apart in the source and are kept apart here.

Experiments:
hCA IX = biological target: hCA IX; parameters: method as in PMID 26160114; conditions: Figure 2; cited from earlier work
hCA XII = biological target: hCA XII; parameters: method as in PMID 26160114; conditions: Figure 2; cited from earlier work
hCA I = hCA I (Homo sapiens, UniProt P00915); experiment: stopped-flow CA catalysed CO2 hydration assay, hCA I
Procedure: (§1) An applied photophysics stopped-flow instrument has been used for assaying the CA catalysed CO2 hydration activity[21]. […] The CO2 concentrations ranged from 1.7 to 17 mM for the determination of the kinetic parameters and inhibition constants. […] The uncatalysed rates were determined in the same manner and subtracted from the total observed rates. Stock solutions of inhibitor (0.1 mM) were prepared in distilled-deionized water and dilutions up to 0.005 nM were done thereafter with the assay buffer. Inhibitor and enzyme solutions were preincubated together for 15 min at room temperature prior to assay, in order to allow for the formation of the E–I complex. The inhibition constants were obtained by non-linear least-squares methods using PRISM 3 and the Cheng–Prusoff equation, as reported earlier, and represent the mean from at least three different determinations. All CA isoforms were recombinant ones obtained in-house[22–25].

hCA II = hCA II (Homo sapiens, UniProt P00918); experiment: stopped-flow CA catalysed CO2 hydration assay, hCA II
Procedure: as §1

hCA IV = hCA IV (Homo sapiens, UniProt P22748); experiment: stopped-flow CA catalysed CO2 hydration assay, hCA IV
Procedure: as §1

hCA VII = hCA VII (Homo sapiens, UniProt P43166); experiment: stopped-flow CA catalysed CO2 hydration assay, hCA VII
Procedure: as §1

[1] = within the panel hCA I, II, IV, VII

hCA I, sequence (P00915 whole entry): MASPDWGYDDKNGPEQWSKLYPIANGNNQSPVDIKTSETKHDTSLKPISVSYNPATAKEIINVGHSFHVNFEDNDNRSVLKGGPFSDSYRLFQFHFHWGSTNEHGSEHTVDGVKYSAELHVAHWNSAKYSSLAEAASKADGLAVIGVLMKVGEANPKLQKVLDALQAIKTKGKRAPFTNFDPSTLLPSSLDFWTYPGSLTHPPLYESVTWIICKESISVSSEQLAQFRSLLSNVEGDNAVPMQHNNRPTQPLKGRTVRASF
hCA IV, sequence (P22748 19-312): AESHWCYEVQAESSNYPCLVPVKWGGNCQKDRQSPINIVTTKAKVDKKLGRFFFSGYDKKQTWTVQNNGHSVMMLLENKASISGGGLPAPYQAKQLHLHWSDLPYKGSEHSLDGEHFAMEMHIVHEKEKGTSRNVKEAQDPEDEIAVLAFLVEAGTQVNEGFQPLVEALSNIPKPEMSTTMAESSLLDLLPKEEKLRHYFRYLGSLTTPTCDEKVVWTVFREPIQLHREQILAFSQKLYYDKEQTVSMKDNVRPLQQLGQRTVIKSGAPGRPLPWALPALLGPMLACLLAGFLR
hCA VII, sequence (P43166 whole entry): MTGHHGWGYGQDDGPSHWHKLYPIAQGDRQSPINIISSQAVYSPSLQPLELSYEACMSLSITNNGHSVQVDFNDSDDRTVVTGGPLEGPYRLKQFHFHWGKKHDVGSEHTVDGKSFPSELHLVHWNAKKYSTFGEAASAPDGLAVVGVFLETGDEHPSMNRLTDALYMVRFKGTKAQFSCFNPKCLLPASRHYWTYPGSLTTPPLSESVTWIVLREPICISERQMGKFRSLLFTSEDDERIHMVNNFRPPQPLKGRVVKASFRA

| SMILES | melting point [°C] | Ki (hCA I) [µM] | isoform selectivity for hCA I, in words (hCA I; [1]) | Ki (hCA II) [µM] | Ki (hCA IV) [µM] | Ki (hCA VII) [µM] | Ki (hCA I; read-out: hCA Ki (μM) hCA I, recombinant enzyme, stopped-flow CO2 hydration, 15 min preincubation, pH 8.3) [µM] | Ki (hCA II; read-out: hCA Ki (μM) hCA II, recombinant enzyme, stopped-flow CO2 hydration, 15 min preincubation, pH 8.3) [µM] | Ki (hCA IV; read-out: hCA Ki (μM) hCA IV, recombinant enzyme, stopped-flow CO2 hydration, 15 min preincubation, pH 8.3) [µM] | Ki (hCA VII; read-out: hCA Ki (μM) hCA VII, recombinant enzyme, stopped-flow CO2 hydration, 15 min preincubation, pH 8.3) [µM] | isoform selectivity for hCA II, in words (hCA II; [1]) | Ki (hCA IX) [µM] | Ki (hCA XII) [µM] |
| --- | --- | --- | --- | --- | --- | --- | --- | --- | --- | --- | --- | --- | --- |
| NS(=O)(=O)c1ccc(-c2cnc(C(=O)N3CCCC3)o2)s1 [Compound 4] | – | – | – | – | – | – | – | – | – | – | – | 0.0187 | 0.0067 |
| Cc1ccc(S(N)(=O)=O)cc1-n1cc(S(N)(=O)=O)cn1 [Compound 9i, 1-(2-Methyl-5-sulfamoylphenyl)-^1H-pyrazole-4-sulfonamide] | 185 to 188 | – | – | – | – | – | 0.55 | 0.03 | 7.86 | 0.014 | – | – | – |
| Cc1nn(-c2ccc(Cl)c(S(N)(=O)=O)c2)c(C)c1S(N)(=O)=O [Compound 9m, 1-(4-Chloro-3-sulfamoylphenyl)-3,5-dimethyl-^1H-pyrazole-4-sulfonamide] | 241 to 243 | 0.89 | – | 0.04 | 0.077 | 0.65 | – | – | – | – | – | – | – |
| NS(=O)(=O)c1cnn(-c2ccc(Cl)c(S(N)(=O)=O)c2)c1 [Compound 9n, 1-(4-Chloro-3-sulfamoylphenyl)-^1H-pyrazole-4-sulfonamide] | 232 to 235 | 0.62 | – | 0.024 | 0.074 | 0.099 | – | – | – | – | – | – | – |
| Cc1nn(-c2ccc(S(N)(=O)=O)c(Cl)c2)c(C)c1S(N)(=O)=O [Compound 9o, 1-(3-Chloro-4-sulfamoylphenyl)-3,5-dimethyl-^1H-pyrazole-4-sulfonamide] | 198 to 201 | 0.16 | – | 0.008 | 0.93 | 0.71 | – | – | – | – | – | – | – |
| NS(=O)(=O)c1cnn(-c2ccc(S(N)(=O)=O)c(Cl)c2)c1 [Compound 9p, 1-(3-Chloro-4-sulfamoylphenyl)-^1H-pyrazole-4-sulfonamide] | 195 to 197 | 3.08 | – | 0.008 | 0.075 | 0.48 | – | – | – | – | – | – | – |
| NS(=O)(=O)c1ccc(Cl)c(-n2cc(S(N)(=O)=O)cn2)c1 [Compound 9r, 1-(2-Chloro-5-sulfamoylphenyl)-^1H-pyrazole-4-sulfonamide] | 235 to 237 | 0.55 | – | 0.005 | 0.022 | 0.6 | – | – | – | – | – | – | – |

Continued, in another order:

| melting point [°C] | Ki (hCA I) [µM] | isoform selectivity for hCA I, in words (hCA I; [1]) | Ki (hCA II) [µM] | Ki (hCA IV) [µM] | Ki (hCA VII) [µM] | Ki (hCA I; read-out: hCA Ki (μM) hCA I, recombinant enzyme, stopped-flow CO2 hydration, 15 min preincubation, pH 8.3) [µM] | Ki (hCA II; read-out: hCA Ki (μM) hCA II, recombinant enzyme, stopped-flow CO2 hydration, 15 min preincubation, pH 8.3) [µM] | Ki (hCA IV; read-out: hCA Ki (μM) hCA IV, recombinant enzyme, stopped-flow CO2 hydration, 15 min preincubation, pH 8.3) [µM] | Ki (hCA VII; read-out: hCA Ki (μM) hCA VII, recombinant enzyme, stopped-flow CO2 hydration, 15 min preincubation, pH 8.3) [µM] | isoform selectivity for hCA II, in words (hCA II; [1]) | SMILES | Ki (hCA IX) [µM] | Ki (hCA XII) [µM] |
| --- | --- | --- | --- | --- | --- | --- | --- | --- | --- | --- | --- | --- | --- |
| 308 to 310 | 0.87 | selective inhibitor of hCA I | > 10 | > 10 | > 10 | – | – | – | – | – | Cc1ccc(S(N)(=O)=O)cc1-n1nc(C)c(S(N)(=O)=O)c1C [Compound 9h, 3,5-Dimethyl-1-(2-methyl-5-sulfamoylphenyl)-^1H-pyrazole-4-sulfonamide] | – | – |
| 254 to 257 | 0.95 | – | 0.96 | > 10 | 0.33 | – | – | – | – | – | COc1ccc(-n2nc(C)c(S(N)(=O)=O)c2C)cc1S(N)(=O)=O [Compound 9j, 1-(4-Methoxy-3-sulfamoylphenyl)-3,5-dimethyl-^1H-pyrazole-4-sulfonamide] | – | – |
| 256 to 258 | 4.65 | – | 0.61 | > 10 | 0.17 | – | – | – | – | – | COc1cc(-n2nc(C)c(S(N)(=O)=O)c2C)ccc1S(N)(=O)=O [Compound 9k, 1-(3-Methoxy-4-sulfamoylphenyl)-3,5-dimethyl-^1H-pyrazole-4-sulfonamide] | – | – |
| 238 to 242 | 6.8 | – | 0.3 | 0.95 | > 10 | – | – | – | – | – | COc1ccc(S(N)(=O)=O)cc1-n1nc(C)c(S(N)(=O)=O)c1C [Compound 9l, 1-(2-Methoxy-5-sulfamoylphenyl)-3,5-dimethyl-^1H-pyrazole-4-sulfonamide] | – | – |
| 230 to 232 | 2.12 | – | 0.025 | 4.38 | > 10 | – | – | – | – | selective hCA II inhibitor | Cc1nn(-c2cc(S(N)(=O)=O)ccc2Cl)c(C)c1S(N)(=O)=O [Compound 9q, 1-(2-Chloro-5-sulfamoylphenyl)-3,5-dimethyl-^1H-pyrazole-4-sulfonamide] | – | – |
